Data published in patent US4521340A, “Pharmaceutically acceptable salts of the antibiotic C-19393 E5” (priority 1980, dated 1985).
Entries after “also recorded” stand apart in the source; their conditions may differ. Counter-ions that a name gives are not always drawn. Like-named read-outs stand apart in the source and are kept apart here.

Assays:
K-101 strain = test: Growth on minimal medium containing compound (Table 4); assay type: cell-based, Streptomyces griseus subsp. cryophilus; conditions: 28° C., 4 days
Method: (§1) The 20 plates were selected from among those cultivated with about 20-100 colonies per plate. These colonies were inoculated by the replicate method onto a minimal medium (composition: 10 g of glycerol, 1 g of L-asparagine,1 g of dipotassium phosphate, 0.2 g of magnesium sulfate, 20 g of agar and distilled water; pH 7.1) and a screening medium A (the minimal medium supplemented with 50 mg/l of L-cysteine) and each of the media was incubated at 28° C. for 3 days. Another 20 plates were selected from among those cultivated with about 20-100 colonies per plate. These colonies were replicated on a minimal medium (the same as said composition) and a screening medium B (the minimal medium supplemented with 50 mg/l of sodium thiosulfate) and each of the media was incubated at 28° C. for 3 days. The strains thus obtained were incubated on minimal media containing sodium thiosulfate, L-cysteine or L-methionine in various concentrations at 28° C. for 4 days.

K-4 strain = test: as above; assay type: cell-based, Streptomyces griseus subsp. cryophilus; conditions: 28° C., 4 days
Method: as §1

C-19393 strain [1] = test: as above; assay type: cell-based, Streptomyces griseus subsp. cryophilus; set-up: key to the marks not given beside the values; conditions: 28° C., 4 days
Method: as §1

C-19393 strain [2] = test: Growth on minimal medium containing compound (Table 5); assay type: cell-based, Streptomyces griseus subsp. cryophilus; conditions: 28° C., 4 days
Method: (§2) SR-135 and C-19393 strains were incubated on a minimal medium containing sodium thiosulfate, L-cysteine or L-methionine at 28° C. for 4 days.

SR-135 strain [3] = test: as above; assay type: cell-based, Streptomyces griseus subsp. cryophilus; conditions: 28° C., 4 days
Method: as §2

C-19393 strain [4] = conditions: 28° C., 7 days
SR-135 strain [5] = conditions: 28° C., 7 days
C-19393 strain [6] = test: microbe, parasite or virus in culture; conditions: Streptomyces griseus, 168 h, read-out: Concentration at which growth was inhibited
[7] = Stability of aqueous solution; assay type: physicochemical; conditions: neutral pH region
[8] = test system: gram-positive and gram-negative bacteria; test: Antibacterial activity (summary in words); assay type: cell-based
Description: (§3) The biological properties of C-19393 E5 are as follows.

[9] = test system: Alcaligenes faecalis IFO 13111; test: Antimicrobial spectrum, MIC (Bouillon agar); assay type: cell-based; conditions: IFO13111, read-out: Minimum Inhibitory Concentration
Description: as §3

[10] = test system: Bacillus subtilis PCI 219; test: Antimicrobial spectrum, MIC (Bouillon agar); assay type: cell-based; conditions: PCI219, read-out: Minimum Inhibitory Concentration
Description: as §3

[11] = test system: Comamonas terrigena IFO 13299; test: Antimicrobial spectrum, MIC (Bouillon agar); assay type: cell-based; conditions: IFO13299, read-out: Minimum Inhibitory Concentration
Description: as §3

Escherichia coli NIHJ = test: Antimicrobial spectrum, MIC (Bouillon agar); assay type: cell-based; conditions: read-out: Minimum Inhibitory Concentration
Description: as §3

[12] = test system: Klebsiella pneumoniae IFO 3317; test: Antimicrobial spectrum, MIC (Bouillon agar); assay type: cell-based; conditions: IFO3317, read-out: Minimum Inhibitory Concentration
Description: as §3

[13] = test system: Proteus mirabilis ATCC 21100; test: Antimicrobial spectrum, MIC (Bouillon agar); assay type: cell-based; conditions: ATCC21100, read-out: Minimum Inhibitory Concentration
Description: as §3

[14] = test system: Proteus vulgaris IFO 3988; test: Antimicrobial spectrum, MIC (Bouillon agar); assay type: cell-based; conditions: IFO3988, read-out: Minimum Inhibitory Concentration
Description: as §3

[15] = test system: Pseudomonas aeruginosa IFO 3080; test: Antimicrobial spectrum, MIC (Bouillon agar); assay type: cell-based; conditions: IFO3080, read-out: Minimum Inhibitory Concentration
Description: as §3

[16] = test system: Salmonella typhimurium IFO 12529; test: Antimicrobial spectrum, MIC (Bouillon agar); assay type: cell-based; conditions: Salmonella enterica, read-out: Minimum Inhibitory Concentration
Description: as §3

Sarcina lutea IFO 3232 = test: Antimicrobial spectrum, MIC (Bouillon agar); assay type: cell-based; conditions: Micrococcus luteus, IFO3232, read-out: Minimum Inhibitory Concentration
Description: as §3

[17] = test system: Serratia marcescens IFO 12648; test: Antimicrobial spectrum, MIC (Bouillon agar); assay type: cell-based; conditions: IFO12648, read-out: Minimum Inhibitory Concentration
Description: as §3

[18] = test system: Staphylococcus aureus 209P; test: Antimicrobial spectrum, MIC (Bouillon agar); assay type: cell-based; conditions: read-out: Minimum Inhibitory Concentration
Description: as §3

Solubility = assay type: physicochemical

| Structure (SMILES) | Growth (K-101 strain; 3.125 mg/l) | Growth (K-101 strain; 6.25 mg/l) | Growth (K-101 strain; 12.5 mg/l) | Growth (K-101 strain; 25 mg/l) | Growth (K-101 strain; 50 mg/l) | Growth (K-101 strain; 100 mg/l) | Growth (K-4 strain; 3.125 mg/ml (so in the source)) | Growth (K-4 strain; 6.25 mg/ml (so in the source)) | Growth (K-4 strain; 12.5 mg/ml (so in the source)) | Growth (K-4 strain; 25 mg/ml (so in the source)) | Growth (K-4 strain; 50 mg/ml (so in the source)) | Growth (K-4 strain; 100 mg/ml (so in the source)) | Growth (C-19393 strain [1]; 3.125 mg/ml (so in the source)) | Growth (C-19393 strain [1]; 6.25 mg/ml (so in the source)) | Growth (C-19393 strain [1]; 12.5 mg/ml (so in the source)) | Growth (C-19393 strain [1]; 25 mg/ml (so in the source)) | Growth (C-19393 strain [1]; 50 mg/ml (so in the source)) | Growth (C-19393 strain [1]; 100 mg/ml (so in the source)) | Growth (C-19393 strain [2]; 3.125 mg/l) | Growth (C-19393 strain [2]; 6.25 mg/l) | further results |
| --- | --- | --- | --- | --- | --- | --- | --- | --- | --- | --- | --- | --- | --- | --- | --- | --- | --- | --- | --- | --- | --- |
| N[C@@H](CS)C(=O)O [L-Cysteine, L-cysteine] | + | ++ | +++ | +++ | +++ | +++ | + | + | ++ | +++ | +++ | +++ | +++ | +++ | +++ | +++ | +++ | +++ | +++ | +++ | Growth (C-19393 strain [2]; 12.5 mg/l): +++; Growth (C-19393 strain [2]; 25 mg/l): +++; Growth (C-19393 strain [2]; 50 mg/l): +++; Growth (C-19393 strain [2]; 100 mg/l): +++; Growth (SR-135 strain [3]; 3.125 mg/l): ++; Growth (SR-135 strain [3]; 6.25 mg/l): +++; Growth (SR-135 strain [3]; 12.5 mg/l): +++; Growth (SR-135 strain [3]; 25 mg/l): +++; Growth (SR-135 strain [3]; 50 mg/l): +++; Growth (SR-135 strain [3]; 100 mg/l): +++ |
| CSCC[C@H](N)C(=O)O [L-Methionine, L-methionine] | + | ++ | +++ | +++ | +++ | +++ | + | ++ | ++ | +++ | +++ | +++ | +++ | +++ | +++ | +++ | +++ | +++ | +++ | +++ | Growth (C-19393 strain [2]; 12.5 mg/l): +++; Growth (C-19393 strain [2]; 25 mg/l): +++; Growth (C-19393 strain [2]; 50 mg/l): ++ +; Growth (C-19393 strain [2]; 100 mg/l): +++; Growth (SR-135 strain [3]; 3.125 mg/l): ++; Growth (SR-135 strain [3]; 6.25 mg/l): +++; Growth (SR-135 strain [3]; 12.5 mg/l): +++; Growth (SR-135 strain [3]; 25 mg/l): +++; Growth (SR-135 strain [3]; 50 mg/l): +++; Growth (SR-135 strain [3]; 100 mg/l): +++ |
| O=S([O-])([O-])=S.[Na+].[Na+] [Sodium thiosulfate, sodium thiosulfate] | ± | ± | ± | + | ++ | +++ | + | + | ++ | +++ | +++ | +++ | +++ | +++ | +++ | +++ | +++ | +++ | +++ | +++ | Growth (C-19393 strain [2]; 12.5 mg/l): +++; Growth (C-19393 strain [2]; 25 mg/l): +++; Growth (C-19393 strain [2]; 50 mg/l): +++; Growth (C-19393 strain [2]; 100 mg/l): +++; Growth (SR-135 strain [3]; 3.125 mg/l): +; Growth (SR-135 strain [3]; 6.25 mg/l): ++; Growth (SR-135 strain [3]; 12.5 mg/l): ++; Growth (SR-135 strain [3]; 25 mg/l): +++; Growth (SR-135 strain [3]; 50 mg/l): +++; Growth (SR-135 strain [3]; 100 mg/l): +++ |
| O=[Se](=O)(O)O [Sodium selenate, sodium selenate] |  |  |  |  |  |  |  |  |  |  |  |  |  |  |  |  |  |  |  |  | Growth (C-19393 strain [4]; 62.5 mg/l): +++; Growth (C-19393 strain [4]; 125 mg/l): ++; Growth (C-19393 strain [4]; 250 mg/l): ±; Growth (C-19393 strain [4]; 1000 mg/l): -; Growth (C-19393 strain [4]; 2000 mg/l): -; Growth (SR-135 strain [5]; 62.5 mg/l): ++; Growth (SR-135 strain [5]; 125 mg/l): ++; Growth (SR-135 strain [5]; 250 mg/l): ++; Growth (SR-135 strain [5]; 500 mg/l): ++; Growth (SR-135 strain [5]; 1000 mg/l): ++; Growth (SR-135 strain [5]; 2000 mg/l): +; MIC (C-19393 strain [6]): ≥ 250 µg/mL |
| CC(=O)N/C=C/[S+]([O-])C1=C(C(=O)O)N2C(=O)[C@@H]([C@H](C)O)[C@H]2C1 (stereo partly drawn) [C-19393 E5] |  |  |  |  |  |  |  |  |  |  |  |  |  |  |  |  |  |  |  |  | Stability of aqueous solution [7]: stable in the neutral pH region; Antibacterial/antimicrobial activity [8]: highly active against both gram-positive and gram-negative bacteria; also recorded: strong antimicrobial activity against gram-positive and gram-negative bacteria |
| CC(=O)N/C=C/[S+]([O-])C1=C(C(=O)O)N2C(=O)[C@@H]([C@H](C)O)[C@H]2C1 (stereo partly drawn) [C-19393 E5 sodium salt] |  |  |  |  |  |  |  |  |  |  |  |  |  |  |  |  |  |  |  |  | MIC [9]: 1.56 µg/mL; MIC [10]: 0.78 µg/mL; MIC [11]: 0.78 µg/mL; MIC (Escherichia coli NIHJ): 0.78 µg/mL; MIC [12]: 6.25 µg/mL; MIC [13]: 3.13 µg/mL; MIC [14]: 1.56 µg/mL; MIC [15]: 6.25 µg/mL; MIC [16]: 0.78 µg/mL; MIC (Sarcina lutea IFO 3232): 0.2 µg/mL; MIC [17]: 6.25 µg/mL; MIC [18]: 0.78 µg/mL; Solubility (Solubility; in acetone): insoluble; Solubility (Solubility; in benzene): insoluble; Solubility (Solubility; in ethyl acetate): insoluble; Solubility (Solubility; in water): Readily soluble |
